Assay results as given in patent publication US4303664A, “Novel penicillin derivatives containing a coumarin nucleus and medicines containing the same” (Teijin Limited, priority 1978, dated 1981).
≈ marks a conversion by molar mass, not a printed value.

How the values were obtained:
Enterobactor cloacae 147 = test: Bactericidal test (MIC), Enterobactor cloacae 147; assay type: cell-based; conditions: (7) Enterobactor cloacae 147
Source text: (§1) Results of bactericidal tests (MIC, r/ml) on the penicillin derivatives of this invention prepared in the above examples are shown in the following table.

Rettgerella var. Tid-21 = test: Bactericidal test (MIC), Rettgerella var. Tid-21; assay type: cell-based; conditions: (10) Rettgerella var. Tid-21; read-out: MIC
Source text: as §1

[1] = test system: Klebsiella neumoniae ATCC10031; test: Bactericidal test (MIC), Klebsiella neumoniae ATCC10031; assay type: cell-based; conditions: (6) Klebsiella neumoniae ATCC10031; read-out: MIC
Source text: as §1

Morganella var. G-2 = test: Bactericidal test (MIC), Morganella var. G-2; assay type: cell-based; conditions: VAR.G2; (9) Morganella var. G-2; read-out: MIC
Source text: as §1

Serratia G-18 = test: Bactericidal test (MIC), Serratia G-18; assay type: cell-based; conditions: G18; (11) Serratia G-18; read-out: MIC
Source text: as §1

[2] = test system: Pseudomonas aeruginosa IFO-3080; test: Bactericidal test (MIC), Pseudomonas aeruginosa IFO-3080; assay type: cell-based; conditions: IFO3080; (12) Pseudomonas aeruginosa IFO-3080; read-out: MIC
Source text: as §1

[3] = test system: Enterobacter cloacae IF012937; test: Bactericidal test (MIC), Enterobacter cloacae IF012937; assay type: cell-based; conditions: (8) Enterobacter cloacae IF012937
Source text: as §1

[4] = test system: Pseudomonas aeruginosa 130; test: Bactericidal test (MIC), Pseudomonas aeruginosa 130; assay type: cell-based; conditions: (16) Pseudomonas aeruginosa 130
Source text: as §1

[5] = test system: Escherichia Coli NIHJ JC-2; test: Bactericidal test (MIC), Escherichia Coli NIHJ JC-2; assay type: cell-based; conditions: NIHJJC2; (5) Escherichia Coli NIHJ JC-2
Source text: as §1

[6] = test system: Staphylococcus aureus 209-p; test: Bactericidal test (MIC), Staphylococcus aureus 209-p; assay type: cell-based; conditions: (1) Staphylococcus aureus 209-p
Source text: as §1

[7] = test system: Pseudomonas aeruginosa 0-37; test: Bactericidal test (MIC), Pseudomonas aeruginosa 0-37; assay type: cell-based; conditions: 037; (13) Pseudomonas aeruginosa 0-37
Source text: as §1

Bacillus subtilis = test: Bactericidal test (MIC), Bacillus subtilis; assay type: cell-based; conditions: (3) Bacillus subtilis
Source text: as §1

[8] = test system: Pseudomonas aeruginosa GN-315; test: Bactericidal test (MIC), Pseudomonas aeruginosa GN-315; assay type: cell-based; conditions: GN315; (15) Pseudomonas aeruginosa GN-315
Source text: as §1

[9] = Acute toxicity values [(LD50), mouse]; conditions: in vivo
Source text: Acute toxicity values [(LD50), mouse] of some penicillin derivatives of this invention are illustrated in the following table.

[10] = test system: Staphylococcus aureus 1248; test: Bactericidal test (MIC), Staphylococcus aureus 1248; assay type: cell-based; conditions: (2) Staphylococcus aureus 1248; read-out: MIC
Source text: as §1

[11] = test system: Pseudomonas aeruginosa Tid-53; test: Bactericidal test (MIC), Pseudomonas aeruginosa Tid-53; assay type: cell-based; conditions: TID53; (14) Pseudomonas aeruginosa Tid-53
Source text: as §1

[12] = test system: Salmonella typhimurium G-20; test: Bactericidal test (MIC), Salmonella typhimurium G-20; assay type: cell-based; conditions: Salmonella enterica; (4) Salmonella typhimurium G-20
Source text: as §1

[13] = Rates of protein fixation (human serum protein); assay type: in vitro ADME; conditions: read-out: Rate of protein fixation (converted)
Source text: Rates of protein fixation (human serum protein) of the penicillin derivatives of this invention are illustrated as follows: […]

SMILES	MIC (Enterobactor cloacae 147) [µg/mL]	MIC (Rettgerella var. Tid-21) [µg/mL]	MIC [1] [µg/mL]	MIC (Morganella var. G-2) [µg/mL]	MIC (Serratia G-18) [µg/mL]	MIC [2] [µg/mL]	MIC [3] [µg/mL]	MIC [4] [µg/mL]	MIC [5] [µg/mL]	MIC [6] [µg/mL]	MIC [7] [µg/mL]	MIC (Bacillus subtilis) [µg/mL]	MIC [8] [µg/mL]	LD50 ([9]; Oral) [mg/kg]	LD50 ([9]; ip, Intraabdominal) [mg/kg]	MIC [10] [µg/mL]	MIC [11] [µg/mL]	MIC [12] [µg/mL]	fraction unbound [13]
COc1cccc2cc(C(=O)N[C@@H](C(=O)N[C@@H]3C(=O)N4[C@@H]3SC(C)(C)[C@@H]4C(=O)O)c3ccc(O)cc3)c(=O)oc12 [Example 18, D(-)-α-(8-Methoxycoumarin-3-carbonamido)-p-hydroxylbenzylpenicillin]	3.13 (≈ 5.51 µM)	3.13 (≈ 5.51 µM)	0.8 (≈ 1.41 µM)	3.13 (≈ 5.51 µM)	6.25 (≈ 11 µM)	0.8 (≈ 1.41 µM)	3.13 (≈ 5.51 µM)	1.56 (≈ 2.75 µM)	< 0.4	< 0.4	12.5 (≈ 22 µM)	< 0.4	3.13 (≈ 5.51 µM)	> 4000	2000	1.56 (≈ 2.75 µM)	3.13 (≈ 5.51 µM)	< 0.4	–
CC1(C)S[C@@H]2[C@H](NC(=O)[C@H](NC(=O)c3cc4cc(Cl)ccc4oc3=O)c3ccccc3)C(=O)N2[C@H]1C(=O)O [Example 2, D(-)-α-(6-Chlorocoumarin-3-carbonamido)benzylpenicillin]	25 (≈ 45 µM)	12.5 (≈ 22.5 µM)	1.56 (≈ 2.81 µM)	12.5 (≈ 22.5 µM)	50 (≈ 89.9 µM)	3.13 (≈ 5.63 µM)	25 (≈ 45 µM)	6.25 (≈ 11.2 µM)	< 0.4	< 0.4	50 (≈ 89.9 µM)	< 0.4	25 (≈ 45 µM)	–	–	1.56 (≈ 2.81 µM)	25 (≈ 45 µM)	< 0.4	0.33
CC1(C)S[C@@H]2[C@H](NC(=O)[C@H](NC(=O)c3cc4cc(Br)ccc4oc3=O)c3ccccc3)C(=O)N2[C@H]1C(=O)O [Example 3, D(-)-α-(6-Bromocoumarin-3-carbonamido)benzylpenicillin]	3.13 (≈ 5.21 µM)	6.25 (≈ 10.4 µM)	1.56 (≈ 2.6 µM)	6.25 (≈ 10.4 µM)	25 (≈ 41.6 µM)	1.56 (≈ 2.6 µM)	25 (≈ 41.6 µM)	1.56 (≈ 2.6 µM)	< 0.4	< 0.4	25 (≈ 41.6 µM)	< 0.4	6.25 (≈ 10.4 µM)	–	–	1.56 (≈ 2.6 µM)	6.25 (≈ 10.4 µM)	< 0.4	0.2
CC1(C)S[C@@H]2[C@H](NC(=O)[C@H](NC(=O)c3cc4ccccc4oc3=O)c3ccccc3)C(=O)N2[C@H]1C(=O)O [Example 1, D(-)-α-(Coumarin-3-carbonamido)benzylpenicillin]	3.13 (≈ 6 µM)	1.56 (≈ 2.99 µM)	< 0.4	3.13 (≈ 6 µM)	12.5 (≈ 24 µM)	< 0.4	6.25 (≈ 12 µM)	< 0.4	< 0.4	< 0.4	12.5 (≈ 24 µM)	< 0.4	1.56 (≈ 2.99 µM)	> 4000	–	1.56 (≈ 2.99 µM)	3.13 (≈ 6 µM)	< 0.4	–
CC1(C)S[C@@H]2[C@H](NC(=O)[C@H](NC(=O)c3cc4cc(O)ccc4oc3=O)c3ccccc3)C(=O)N2[C@H]1C(=O)O [Example 10, D(-)-α-(6-Hydroxycoumarin-3-carbonamido)benzylpenicillin]	3.13 (≈ 5.82 µM)	6.25 (≈ 11.6 µM)	0.8 (≈ 1.49 µM)	6.25 (≈ 11.6 µM)	12.5 (≈ 23.3 µM)	1.56 (≈ 2.9 µM)	100 (≈ 186 µM)	3.13 (≈ 5.82 µM)	< 0.4	< 0.4	25 (≈ 46.5 µM)	< 0.4	3.13 (≈ 5.82 µM)	–	–	1.56 (≈ 2.9 µM)	6.25 (≈ 11.6 µM)	< 0.4	–
COc1ccc2cc(C(=O)N[C@@H](C(=O)N[C@@H]3C(=O)N4[C@@H]3SC(C)(C)[C@@H]4C(=O)O)c3ccccc3)c(=O)oc2c1 [Example 8, D(-)-α-(7-Methoxycoumarin-3-carbonamido)benzylpenicillin]	1.56 (≈ 2.83 µM)	6.25 (≈ 11.3 µM)	< 0.4	3.13 (≈ 5.67 µM)	12.5 (≈ 22.7 µM)	1.56 (≈ 2.83 µM)	6.25 (≈ 11.3 µM)	3.13 (≈ 5.67 µM)	< 0.4	< 0.4	25 (≈ 45.3 µM)	< 0.4	3.13 (≈ 5.67 µM)	–	–	< 0.4	3.13 (≈ 5.67 µM)	< 0.4	–
COC(=O)c1cccc2cc(C(=O)N[C@@H](C(=O)N[C@@H]3C(=O)N4[C@@H]3SC(C)(C)[C@@H]4C(=O)O)c3ccccc3)c(=O)oc12 [Example 14, D(-)-α-(8-Methoxycarbonylcoumarin-3-carbonamido)benzylpenicillin]	25 (≈ 43.1 µM)	12.5 (≈ 21.6 µM)	1.56 (≈ 2.69 µM)	1.56 (≈ 2.69 µM)	12.5 (≈ 21.6 µM)	3.13 (≈ 5.4 µM)	6.25 (≈ 10.8 µM)	3.13 (≈ 5.4 µM)	< 0.4	< 0.4	100 (≈ 173 µM)	< 0.4	12.5 (≈ 21.6 µM)	–	–	3.13 (≈ 5.4 µM)	25 (≈ 43.1 µM)	< 0.4	–
CC(=O)Oc1ccc2oc(=O)c(C(=O)N[C@@H](C(=O)N[C@@H]3C(=O)N4[C@@H]3SC(C)(C)[C@@H]4C(=O)O)c3ccc(O)cc3)cc2c1 [Example 17, D(-)-α-(6-Acetoxycoumarin-3-carbonamido)-p-hydroxybenzylpenicillin]	12.5 (≈ 21 µM)	3.13 (≈ 5.26 µM)	3.13 (≈ 5.26 µM)	12.5 (≈ 21 µM)	50 (≈ 84 µM)	0.8 (≈ 1.34 µM)	12.5 (≈ 21 µM)	1.56 (≈ 2.62 µM)	< 0.4	< 0.4	25 (≈ 42 µM)	< 0.4	3.13 (≈ 5.26 µM)	–	–	3.13 (≈ 5.26 µM)	6.25 (≈ 10.5 µM)	< 0.4	–
Cc1cccc2cc(C(=O)N[C@@H](C(=O)N[C@@H]3C(=O)N4[C@@H]3SC(C)(C)[C@@H]4C(=O)O)c3ccccc3)c(=O)oc12 [Example 15, D(-)-α-(8-Methylcoumarin-3-carbonamido)benzylpenicillin]	200 (≈ 373 µM)	50 (≈ 93.4 µM)	6.25 (≈ 11.7 µM)	100 (≈ 187 µM)	200 (≈ 373 µM)	12.5 (≈ 23.3 µM)	100 (≈ 187 µM)	25 (≈ 46.7 µM)	< 0.4	< 0.4	200 (≈ 373 µM)	< 0.4	200 (≈ 373 µM)	–	–	6.25 (≈ 11.7 µM)	100 (≈ 187 µM)	< 0.4	–
CC1(C)S[C@@H]2[C@H](NC(=O)[C@H](NC(=O)c3cc4ccccc4oc3=O)c3ccc(O)cc3)C(=O)N2[C@H]1C(=O)O [Example 16, D(-)-α-(Coumarin-3-carbonamido)-p-hydroxybenzylpenicillin]	6.25 (≈ 11.6 µM)	1.56 (≈ 2.9 µM)	6.25 (≈ 11.6 µM)	12.5 (≈ 23.3 µM)	50 (≈ 93 µM)	0.8 (≈ 1.49 µM)	25 (≈ 46.5 µM)	1.56 (≈ 2.9 µM)	< 0.4	< 0.4	25 (≈ 46.5 µM)	< 0.4	3.13 (≈ 5.82 µM)	–	–	1.56 (≈ 2.9 µM)	6.25 (≈ 11.6 µM)	< 0.4	0.55
CCOc1cccc2cc(C(=O)N[C@@H](C(=O)N[C@@H]3C(=O)N4[C@@H]3SC(C)(C)[C@@H]4C(=O)O)c3ccccc3)c(=O)oc12 [Example 19, D(-)-α-(8-Ethoxycoumarin-3-carbonamido)benzylpenicillin]	6.25 (≈ 11.1 µM)	3.13 (≈ 5.53 µM)	< 0.4	3.13 (≈ 5.53 µM)	12.5 (≈ 22.1 µM)	1.56 (≈ 2.76 µM)	6.25 (≈ 11.1 µM)	1.56 (≈ 2.76 µM)	< 0.4	< 0.4	12.5 (≈ 22.1 µM)	< 0.4	6.25 (≈ 11.1 µM)	–	–	3.13 (≈ 5.53 µM)	3.13 (≈ 5.53 µM)	< 0.4	–
